From paper PMC3853024, “Aromatase inhibitor treatment with an intravaginal device and its effect on pre-ovulatory ovarian follicles in a bovine model” (Reproductive Biology and Endocrinology : RB&E, 2013)

Tests used:
[1] = test system: pre-ovulatory ovarian follicles; assay: Ovarian ultrasonography in heifers treated with a letrozole-containing intravaginal device; assay type: in vivo, cattle (Hereford-cross beef heifers); settings: for Device placement to ovulation: inserted Day 1, n=15, mean±SEM
Method: Hereford-cross beef heifers (n=30), 15 to 20 months of age and weighing between 235 and 405 kg (average 336 kg), were chosen from a herd of 51 heifers maintained in outdoor pens at the University of Saskatchewan Goodale Research Farm (52° North and 106° West). Heifers were fed alfalfa/grass hay and concentrate to gain approximately 1.3 Kg per day and had water ad libitum during the experimental period from October to December. Heifers were initially examined by transrectal ultrasonography (MyLab5 VET, Canadian Veterinary Imaging, Georgetown, Ontario Canada) to detect the presence of a CL (i.e., confirm post-pubertal status; [18]. Animal procedures were performed in accordance with the Canadian Council on Animal Care and were approved by University of Saskatchewan Protocol Review Committee.
(§1) Heifers in which a CL was detected were given two luteolytic doses of PGF (12 h apart) and monitored by ultrasonography for ovulation. Five to eight days later, the two largest ovarian follicles were ablated by transvaginal ultrasound-guided follicular aspiration to synchronize follicular wave emergence which was expected to occur 1 to 1.5 days later. Prostaglandin (500 μg cloprostenol, Estrumate, Schering-Plough Animal Health, Pointe-Claire, QC, Canada) was given intramuscularly at 60 and 72 h after follicular ablation to induce regression of the CL and shift from a non-ovulatory to an ovulatory follicular wave. At the time of follicular wave emergence (Day 0; i.e., 1.5 days after follicle ablation), heifers were assigned randomly to two groups and given an intravaginal device containing 1 g of letrozole (letrozole group, n=15) or a placebo (letrozole-free) intravaginal device (control group, n=15). Devices were inserted on Day 1 and were kept in place until Day 7 or until ovulation was detected, which ever occurred first.
Intravaginal devices were prepared using a Cue-Mate spine (Bioniche Animal Health, Bellville, ON, Canada) assembled with two blank (progesterone-free) silicone pods that were coated with a gel-based vehicle containing letrozole or vehicle only (control). The vehicle contained the following (all ingredients % w/w): letrozole 10%, gelatin 20% (Gelatin type B, Fisher Scientific, Pittsburgh, PA, USA), polymer 65% (prepared by mixing distilled water 68%, Poloxamer 188 12% and Poloxamer 407 20%, both from Spectrum Chemical, New Brunswick, NJ, USA) and distilled water 5%.
The observations from ultrasound examinations were recorded on a sketch sheet in which each ovary and its structures (CL and follicles ≥ 4 mm in diameter) were represented by size and location. Ovulation was defined as the disappearance of any follicle ≥8 mm between two consecutive daily examinations and was confirmed by the subsequent development of a CL [18]. Follicular wave emergence was defined as occurring 1.5 days after follicular ablation. The dominant follicle of a wave was defined as the largest antral follicle of that wave.
Statistical analyses were done using the Statistical Analysis System software package (SAS Learning Edition 9.1, 2006; SAS Institute Inc., Cary, NC, USA). Time-series data (hormone concentrations, follicle and CL diameter profiles) were analyzed by repeated measures using the PROC MIXED procedure. The main effects were treatment (letrozole and control), time, and their interactions (noted in figures as treatment, day and treat*day, respectively). Single-point measurements (dominant follicle diameter at device placement, maximum diameter of extant dominant follicle, intervals from ablation to wave emergence, and from device placement to ovulation) were analyzed by t-tests. Individual time point comparisons between treatment groups were performed using least significant difference test. Significance was defined as P ≤ 0.05.

[2] = test system: plasma estradiol; assay: Plasma estradiol concentration (radioimmunoassay) in treated heifers; assay type: in vivo, cattle (Hereford-cross beef heifers)
Method: as §1, with “At the time of follicular wave emergence (Day 0; i.e., 1.5 days after follicle ablation), heifers were assigned randomly to two groups and given an intravaginal device containing 1 g of letrozole (letrozole group, n=15) or a placebo (letrozole-free) intravaginal device (control group, n=15).” left out, “first. […]” for “first.”
Plasma concentrations of estradiol were determined using a commercial radioimmunoassay kit (Double Antibody Estradiol; Diagnostic Products Corp., Los Angeles, CA, USA). […]
(§2) Statistical analyses were done using the Statistical Analysis System software package (SAS Learning Edition 9.1, 2006; SAS Institute Inc., Cary, NC, USA). Time-series data (hormone concentrations, follicle and CL diameter profiles) were analyzed by repeated measures using the PROC MIXED procedure. […]

[3] = test system: plasma progesterone; assay: Plasma progesterone concentration (radioimmunoassay) after post-treatment ovulation; assay type: in vivo, cattle (Hereford-cross beef heifers); settings: first 12 days post-ovulation, n=15, P=0.01
Method: as §1, with “At the time of follicular wave emergence (Day 0; i.e., 1.5 days after follicle ablation), heifers were assigned randomly to two groups and given an intravaginal device containing 1 g of letrozole (letrozole group, n=15) or a placebo (letrozole-free) intravaginal device (control group, n=15).” left out, “first. […]” for “first.”
Plasma progesterone concentrations were determined in duplicate using a commercial solid-phase radioimmunoassay kit (Coat-A-Count; Diagnostic Products Corporation, Los Angeles, CA, USA). […] All samples were analyzed in a single assay; the intra-assay coefficients of variation were 9.7% and 5.8 % for low- (mean, 1.7 ng/mL) and high-reference samples (mean, 18.7 ng/mL), respectively. […]

[4] = test system: plasma LH; assay: Plasma LH concentration (radioimmunoassay) in treated heifers; assay type: in vivo, cattle (Hereford-cross beef heifers); settings: n=15, P=0.61
Method: as §1, with “At the time of follicular wave emergence (Day 0; i.e., 1.5 days after follicle ablation), heifers were assigned randomly to two groups and given an intravaginal device containing 1 g of letrozole (letrozole group, n=15) or a placebo (letrozole-free) intravaginal device (control group, n=15).” left out, “first. […]” for “first.”
Plasma LH concentrations were determined in duplicate using a double-antibody radioimmunoassay (NIDDK-bLH4). […] All samples were analyzed in a single assay; the intra-assay coefficient of variation was 11.4% for low reference samples (mean, 0.9 ng/mL) and 12.2% for high reference samples (mean, 2.1 ng/mL).
as §2

[5] = test system: ovarian function; parameters: method as in PMID 21696721, PMID 22541551; settings: cited from earlier work
[6] = single intravenous dose Day 3 post-ovulation, or 3-day regimen Days 1–3, 3–5 or 5–7 post-ovulation

## N#Cc1ccc(C(c2ccc(C#N)cc2)n2cncn2)cc1 [Letrozole]
[1]; Day 1, at device insertion (baseline), n=15, mean±SEM
  Dominant follicle diameter at device placement: 4.2±0.46 mm
[1]; after post-treatment ovulation, n=15, P=0.82
  Corpus luteum diameter profile versus control: not different
[1]; all heifers, regardless of treatment
  Number of ovulations: Single ovulation
[1]; during treatment, n=15, P=0.05
  Day-to-day diameter profile of the dominant follicle versus control: larger
[1]; intravaginal device containing 1 g letrozole
  Device placement to ovulation: 6.1 ± 0.25 days
[1]; intravaginal device containing 1 g letrozole, listed as letrozole
  Device placement to ovulation: 6.1 ± 0.25 days
[1]; intravaginal device containing 1 g letrozole, n=15
  Delay of ovulation versus control: 24 h
[1]; intravaginal device containing 1 g letrozole, n=15, mean±SEM
  Max. diameter of extant dominant follicle: 14.6±0.51 mm
[1]; intravaginal device containing 1 g letrozole, n=15, mean±SEM, listed as letrozole
  Max. diameter of extant dominant follicle: 14.6+/-0.51 mm
[2]; n=15
  Delay of preovulatory rise in estradiol versus control: 24 h
[2]; n=15, P=0.04
  Plasma estradiol concentrations versus control: lower
[3]
  Plasma progesterone concentrations versus control: higher
[4]
  Mean plasma LH concentrations versus control: did not differ
[5]; heifers treated with letrozole for 3 days
  Corpora lutea size following treatment: larger corpora lutea
[5]; [6]
  Circulating FSH concentration: did not induce an elevation
  Mean plasma luteinizing hormone (LH) concentrations: did increase
